Broadly, the IC50 is the concentration that gives 50% inhibition.

The record followed here is patent US10322104B2, “Disulfur bridge linkers for conjugation of a cell-binding molecule” (Suzhou M-Conj Biotech Co., Ltd., priority 2015, dated 2019).

Assay [1] has as its system human gastric carcinoma N-87 cell line tumor xenograft. The experiment in a line: Antitumor activity in vivo, N-87 tumor xenograft. Also noted: species or system female BALB/c Nude mice. The conditions noted are these: one injection. Here is the method: Five-week-old female BALB/c Nude mice (30 animals) were inoculated subcutaneously in the area under the right shoulder with N-87 carcinoma cells (5×10^6 cells/mouse) in 0.1 mL of serum-free medium. The tumors were grown for 8 days to an average size of 136 mm^3. The animals were then randomly divided into 5 groups (6 animals per group). The first group of mice served as the control group and was treated with the phosphate-buffered saline vehicle. […] Three dimensions of the tumor were measured every 4 days and the tumor volumes were calculated using the formula tumor volume=½ (length×width×height). The weight of the animals was also measured at the same time. A mouse was sacrificed when any one of the following criteria was met: (1) loss of body weight of more than 20% from pretreatment weight, (2) tumor volume larger than 1500 mm^3, (3) too sick to reach food and water, or (4) skin necrosis. A mouse was considered to be tumor-free if no tumor was palpable.

Assay [2] relates to SKOV3, a human ovarian carcinoma cell line (Ag+). The experiment in a line: In vitro cytotoxicity (MTT), SK-OV-3 cells. It is filed as cell-based. Here is the method:
(§1) The cell lines used in the cytotoxicity assays were HL-60, a human promyelocytic leukemia cell line; NCI-N87, a human gastric carcinoma cell line; and SKOV3, a human ovarian carcinoma cell line. For HL-60, and NCI-N87, the cells were grown in RPMI-1640 with 10% FBS. For SKOV3 cells, the cells were grown in McCoy's 5A Medium with 10% FBS. To run the assay, the cells (180 μl, 6000 cells) were added to each well in a 96-well plate and incubated for 24 hours at 37° C. with 5% CO2. Next, the cells were treated with test compounds (20 μl) at various concentrations in appropriate cell culture medium (total volume, 0.2 mL). The control wells contain cells and the medium but lack the test compounds. The plates were incubated for 120 hours at 37° C. with 5% CO2. MTT (5 mg/ml) was then added to the wells (20 μl) and the plates were incubated for 1.5 hr at 37° C. The medium was carefully removed and DMSO (180 μl) was added afterward. After it was shaken for 15 min, the absorbance was measured at 490 nm and 570 nm with a reference filter of 620 nm. The inhibition % was calculated according to the following equation: inhibition %=[1−(assay-blank)/(control-blank)]×100.

The subject of assay [3] is HL-60, a human promyelocytic leukemia cell line (Ag−). The experiment in a line: In vitro cytotoxicity (MTT), HL-60 cells. It is filed as cell-based. The conditions noted are these: 120 hours incubation, read-out: IC50 (nM) HL60 cell (Ag−). On the procedure:
as §1

The subject of assay [4] is NCI-N87, a human gastric carcinoma cell line (Ag+). Briefly: In vitro cytotoxicity (MTT), N87 cells. The class given is cell-based. Here is the method:
as §1

Where [5] appears, read: relative to HL60 cell (Ag−) IC50.

For the substance T-DM1, the “animals with no tumor measurable” value in assay [1] (5 mg/Kg i.v., at days 13 and 21 until day 37 and 45, 6 animals per group) is listed as 2/6. In addition, in assay [1] (5 mg/kg, i.v.), the “duration of tumor growth inhibition” value is given as “about 44 days”. Besides, the “anti-tumor effect (FIG. 12)” value in assay [1] (5 mg/kg, i.v., day 13˜21 till day 60 (the end of experiment)) is recorded as “did not completely eliminate the tumor”. Further, the IC50 in assay [2] (MTT, 120 hours incubation) was 0.177 nM; in assay [3], > 15 nM; in assay [4] (MTT, 120 hours incubation), 0.266 nM. Besides, in assay [2] (setting [5]), the “Specificity for SK-OV-3 cell” value is on record as “over 84”. Besides, the “Specificity for N87 cell” value in assay [4] (setting [5]) is “over 56”.
